Measured values reported in patent US7244760B2, “Methods for preparation and use of psorospermin analogs” (Board of Regents, The University of Texas System, priority 2001, dated 2007).
Entries after “also recorded” stand apart in the source; their conditions may differ. Read-outs that look alike come from different tables or passages of the source.

Key:
MCF7 (breast) = assay: Microcytoxicity assay (SRB), MCF7; type: cell-based, human; conditions: for In vitro cytotoxic potency: 4 days, SRB
Description: (§1) (i) Human tumor cell lines. Human tumor cell lines representative of major forms of human cancer for use in the microcytoxicity assay include MCF7 (breast), SW480 (colon), HL-60 (promyelocytic leukemia), MiaPaCa-2 (pancreatic), U937 (histiocytic lymphoma), and 8226 (myeloma) (see Table 5). One drug resistant variant of 8226 was also included: 8226/DOX40, an mdr-1-mediated drug resistant cell line. Other matched pairs may also be added. All lines have known karyotypes that are checked at least annually for quality control.
(§2) Cells were grown in suspension in RPMI 1640 medium supplemented with 5% fetal bovine serum, 1% (v/v) penicillin (100 unit/ml), streptomycin (100 μg/ml), and 1% (v/v) L-glutamine (all from GIBCO, Grand Island, N.Y.) at 37° C. in 5% CO2, 95% air atmosphere, and were passaged once every six days. Additionally, these lines are capable of in vivo growth in SCID mice for in vivo confirmatory studies. In initial experiments, two diastereomeric pairs of (±)-psorospermin methyl ethers in a series of cell lines were evaluated.
(§3) (ii) Microcytoxicity assay. A standard 96-well microcytoxicity assay is performed by plating each cell line in a microtiter plate at 4,000-10,000 cells per well (depending on cell doubling time), six replicate wells per drug dose. All plates are incubated for 4 days at 37° C. in a humidified tissue culture incubator containing 5% CO2 in air. The endpoint determination uses sulforhodamine blue (SRB) and spectrophotometric determination of protein content of each well as reflected by SRB staining. IC50 values were calculated by linear regression analysis.

SW480 (colon) = assay: Microcytoxicity assay (SRB), SW480; type: cell-based, human; conditions: 4 days
Description: as §1, §2
(§4) (ii) Microcytoxicity assay. A standard 96-well microcytoxicity assay is performed by plating each cell line in a microtiter plate at 4,000-10,000 cells per well (depending on cell doubling time), six replicate wells per drug dose. […] IC50 values were calculated by linear regression analysis.

MiaPaCa-2 (pancreatic) = assay: Microcytoxicity assay (SRB), MiaPaCa-2; type: cell-based, human; conditions: for In vitro cytotoxic potency: MiaPaCa-2, 4 days, SRB
Description: as §1, §2, §3

8226 (myeloma) = assay: Microcytoxicity assay (SRB), 8226; type: cell-based, human; conditions: 4 days
Description: as §1, §2, §4

[1] = test system: 8226/DOX40, an mdr-1-mediated drug resistant cell line; assay: Microcytoxicity assay (SRB), 8226/DOX40; type: cell-based, human; conditions: 4 days
Description: as §1, §2, §4

[2] = test system: HL-60 (promyelocytic leukemia); assay: Microcytoxicity assay (SRB), HL-60; type: cell-based, human
Description: as §1, §2, §3

DU 145 = assay: Microcytoxicity assay (SRB), DU 145; type: cell-based, human
Procedure: as §2, §3

HT-29 = assay: Microcytoxicity assay (SRB), HT-29; type: cell-based, human
Procedure: as §3

[3] = test system: U937 (histiocytic lymphoma); assay: Microcytoxicity assay (SRB), U937; type: cell-based, human; conditions: 4 days
Description: as §1, §2, §4

[4] = test system: HL60/AR (adriamycin resistant); assay: Microcytoxicity assay (SRB), HL60/AR; type: cell-based, human; conditions: Acute promyelocytic leukemia
Procedure: as §2, §3

[5] = test system: Acute promyelocytic leukemia; assay: Microcytoxicity assay (SRB), cell line not given; type: cell-based, human; conditions: cell line cell empty; origin Acute promyelocytic leukemia
Procedure: as §2, §3

K562 = assay: Microcytoxicity assay (SRB), K562; type: cell-based, human; conditions: Chronic myelogenous leukemia
Procedure: as §2, §3

[6] = test system: K562/R (daunorubicin resistant); assay: Microcytoxicity assay (SRB), K562/R; type: cell-based, human; conditions: Chronic myelogenous leukemia
Procedure: as §2, §3

A2780 = assay: Microcytoxicity assay (SRB), A2780; type: cell-based, human; conditions: Ovarian
Procedure: as §2, §3

[7] = test system: A2780/CP70 (cisplatin resistant); assay: Microcytoxicity assay (SRB), A2780/CP70; type: cell-based, human; conditions: Ovarian
Procedure: as §2, §3

MCF 10A = assay: Microcytoxicity assay (SRB), MCF 10A; type: cell-based; conditions: Breast, normal mammary
Procedure: as §2, §3

LnCAP = assay: Microcytoxicity assay (SRB), LnCAP; type: cell-based, human; conditions: Prostate, lymph node mets
Procedure: as §2, §3

PEAZ-1 = assay: Microcytoxicity assay (SRB), PEAZ-1; type: cell-based, human; conditions: Prostate, primary
Procedure: as §2, §3

PC-3 = assay: Microcytoxicity assay (SRB), PC-3; type: cell-based, human; conditions: Prostate, adenocarcinoma, mets
Procedure: as §2, §3

PC-3N = assay: Microcytoxicity assay (SRB), PC-3N; type: cell-based, human; conditions: Prostate, N-cadherin positive
Procedure: as §2, §3

tumor cell lines = assay: Microcytoxicity assay, all tumor cell lines tested; type: cell-based, human; conditions: on average over the cell lines of Table 5
Description: as §1, §2, §4

topoisomerase II = topoisomerase II (Drosophila melanogaster, UniProt P15348); assay: Topoisomerase II-mediated DNA cleavage; type: biochemical
Procedure: (§5) In the absence of psorospermin, the intensity of the topoisomerase II-mediated DNA cleavage is much less at site B than at site A. As the concentration of psorospermin was increased, the topoisomerase II-mediated DNA cleavage at site A was decreased, while the cleavage at site B was enhanced. The psorospermin-induced DNA cleavage by topoisomerase II reaches a maximum of 3-fold at a 10 μM drug concentration (FIG. 4). […] On the other hand, the cleaved complex formation at site A was reduced in the presence of psorospermin, despite the 3-fold enhancement of psorospermin alkylation at site A.
(§6) Sites A and B are three base pairs apart from each other, and Drosophila topoisomerase II binds a region of approximately 23 base pairs, based on the results of a DNase I footprinting experiment (Lee et al, 1989). Therefore, it is likely that sites A and B are competing with each other for topoisomerase II binding, and the 25-fold enhancement of the psorospermin alkylation at site B dominates this competition. FIG. 5 summarizes the three possible biochemical consequences of the site-directed alkylation of DNA by psorospermin. Because psorospermin is a 7-alkyl adduct, depurination occurs slowly at room temperature over a period of several days.

[8] = target: topoisomerase II-DNA complex (Drosophila melanogaster, UniProt P15348); assay: Topoisomerase II site-directed alkylation of DNA; type: biochemical; conditions: in the presence of topoisomerase II
Procedure: as §5, §6

P388 mouse leukemia = conditions: cited from earlier work
various tumor cell lines = conditions: cited from earlier work

Chain of topoisomerase II (P15348 whole entry): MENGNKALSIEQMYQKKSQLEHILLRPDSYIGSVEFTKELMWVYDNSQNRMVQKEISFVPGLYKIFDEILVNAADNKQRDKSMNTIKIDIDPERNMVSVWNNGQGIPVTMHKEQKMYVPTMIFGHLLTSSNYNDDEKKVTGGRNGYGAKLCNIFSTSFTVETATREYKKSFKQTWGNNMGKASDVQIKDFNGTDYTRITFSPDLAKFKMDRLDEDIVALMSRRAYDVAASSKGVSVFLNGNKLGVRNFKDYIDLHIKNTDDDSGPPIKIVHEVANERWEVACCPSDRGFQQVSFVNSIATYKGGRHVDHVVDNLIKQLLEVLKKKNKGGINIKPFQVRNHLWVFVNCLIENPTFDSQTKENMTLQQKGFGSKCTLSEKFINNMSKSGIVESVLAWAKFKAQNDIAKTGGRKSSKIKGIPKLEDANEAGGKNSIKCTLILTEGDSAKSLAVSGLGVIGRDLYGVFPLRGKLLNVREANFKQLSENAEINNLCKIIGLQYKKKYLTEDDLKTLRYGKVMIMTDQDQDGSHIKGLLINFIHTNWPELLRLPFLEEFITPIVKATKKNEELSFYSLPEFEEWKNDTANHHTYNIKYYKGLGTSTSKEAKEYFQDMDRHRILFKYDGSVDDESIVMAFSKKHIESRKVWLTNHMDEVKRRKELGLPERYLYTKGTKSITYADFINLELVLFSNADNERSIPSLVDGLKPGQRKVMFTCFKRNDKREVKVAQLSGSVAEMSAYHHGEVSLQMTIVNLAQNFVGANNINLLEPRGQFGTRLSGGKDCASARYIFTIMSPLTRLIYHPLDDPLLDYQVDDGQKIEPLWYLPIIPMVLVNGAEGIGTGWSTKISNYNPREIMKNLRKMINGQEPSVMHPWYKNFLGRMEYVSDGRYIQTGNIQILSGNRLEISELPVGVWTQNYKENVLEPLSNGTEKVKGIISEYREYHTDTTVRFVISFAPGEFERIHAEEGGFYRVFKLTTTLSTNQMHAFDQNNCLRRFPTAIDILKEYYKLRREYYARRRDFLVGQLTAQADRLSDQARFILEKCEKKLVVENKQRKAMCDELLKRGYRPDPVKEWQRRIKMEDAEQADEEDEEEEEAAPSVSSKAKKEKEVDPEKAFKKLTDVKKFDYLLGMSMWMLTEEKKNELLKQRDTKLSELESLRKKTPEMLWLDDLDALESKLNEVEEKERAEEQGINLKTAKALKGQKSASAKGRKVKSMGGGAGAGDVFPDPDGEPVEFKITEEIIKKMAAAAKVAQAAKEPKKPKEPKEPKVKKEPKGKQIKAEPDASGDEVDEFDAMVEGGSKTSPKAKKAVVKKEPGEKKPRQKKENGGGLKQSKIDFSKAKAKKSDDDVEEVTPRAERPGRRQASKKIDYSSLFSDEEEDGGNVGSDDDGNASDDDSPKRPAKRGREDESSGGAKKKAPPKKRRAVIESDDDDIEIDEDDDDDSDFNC
Chain of topoisomerase II-DNA complex (P15348 whole entry, one chain of several): as the sequence (P15348 whole entry) above

(±)-(2′R,3′S) (2′S,3′R) psorospermin methyl ether [Compound B]
In vitro cytotoxic potency (MCF7 (breast)): 0.74 µg/mL | In vitro cytotoxic potency (SW480 (colon)): 0.36 µg/mL | In vitro cytotoxic potency (MiaPaCa-2 (pancreatic)): 0.48 µg/mL | In vitro cytotoxic potency (8226 (myeloma)): 0.33 µg/mL | In vitro cytotoxic potency [1]: 0.30 µg/mL | sensitivity of HL-60 ([2]; HL-60, positive for c-myc and BCL-2): highly sensitive

(2S,3R)-psorospermin methyl ether [Compound 116]
IC50 (MiaPaCa-2 (pancreatic); MiaPaCa, read-out: IC50): 4000 nM | IC50 (DU 145; DU-145, read-out: IC50): 4000 nM | IC50 (HT-29): 7000 nM

COc1c2c(c3oc4ccccc4c(=O)c3c1OC)CC([C@@]1(C)CO1)O2 (mixture of isomers) [Compound A, (±)-(2′R,3′R) (2′S,3′S) psorospermin methyl ether]
In vitro cytotoxic potency (MCF7 (breast)): 0.28 µg/mL | IC50 (MCF7 (breast); Breast, adenocarcinoma): 610 nM | In vitro cytotoxic potency (SW480 (colon)): 0.24 µg/mL | IC50 (MiaPaCa-2 (pancreatic); MIA PaCa-2, pancreas, read-out: IC50 Values): 180 nM | activity in the pancreatic cell line MiaPaCa (MiaPaCa-2 (pancreatic); MiaPaCa): remarkable activity | In vitro cytotoxic potency (MiaPaCa-2 (pancreatic)): 0.26 µg/mL | activity in MiaPaCa compared with gemcytabine (MiaPaCa-2 (pancreatic); MiaPaCa, versus gemcytabine): as good or better | In vitro cytotoxic potency (8226 (myeloma)): 0.21 µg/mL | In vitro cytotoxic potency [1]: 0.06 µg/mL | In vitro cytotoxic potency [3]: 0.062 µg/mL | IC50 ([2]; HL60, origin printed: promyelocytic leukemia): 36 nM | In vitro cytotoxic potency ([2]; HL-60, 4 days, SRB): 0.026 µg/mL | IC50 [4]: 12 nM | IC50 [5]: 11 nM | IC50 (K562): 36 nM | IC50 [6]: 24 nM | IC50 (A2780): 63 nM | IC50 [7]: 473 nM | IC50 (MCF 10A): 5350 nM | IC50 (DU 145; DU 145, Prostate, brain mets, read-out: IC50 Values): 304 nM | IC50 (LnCAP): 460 nM | IC50 (PEAZ-1): 160 nM | IC50 (PC-3): 280 nM | IC50 (PC-3N): 130 nM | effectiveness relative to Compound B (tumor cell lines): more potent; also recorded: twice as effective

(2R,3S)-psorospermin methyl ether [Compound 117]
IC50 (MiaPaCa-2 (pancreatic); MiaPaCa, read-out: IC50): 400 nM | IC50 (DU 145; DU-145, read-out: IC50): 400 nM | IC50 (HT-29): 700 nM

COc1cc2c(c3oc4c(O)cccc4c(=O)c13)C[C@H]([C@@]1(C)CO1)O2 [psorospermin]
topoisomerase II-mediated DNA cleavage at site A (topoisomerase II; site A, as the concentration of psorospermin was increased): decreased | psorospermin-induced DNA cleavage by topoisomerase II, maximum (topoisomerase II; site B, 10 μM drug concentration): 3 fold | enhancement of psorospermin alkylation at site A ([8]; site A): 3 fold | enhancement of the psorospermin alkylation at site B ([8]; site B): 25 fold | activity in vivo against P388 mouse leukemia (P388 mouse leukemia): significant activity | activity in vitro against various tumor cell lines (various tumor cell lines): significant activity
